Source: the NIST ThermoML archive (doi:10.1016/j.jct.2005.12.006)
“And” between values parts separate entries of the source, which are not always exact repeats. Identical values can stand only once. Numbers after ± are expanded uncertainties.

Test: excess molar enthalpy (molar enthalpy of mixing); xn = mol fraction of the nth substance listed
Details: 298.15 K, 101 kPa, Liquid, Flow calorimetry

CCCCN(CCCC)CCCC [tributylamine] + CCCCCC
Details | excess molar enthalpy [kcal/mol]
x1 = 0.05 | -0.00112 ± 0.000502
x1 = 0.0995 | -0.00182 ± 0.000502
x1 = 0.1495 | -0.0022 ± 0.000502
x1 = 0.1997 | -0.0022 ± 0.000502
x1 = 0.2498 | -0.0021 ± 0.000502
x1 = 0.2992 | -0.00189 ± 0.000502
x1 = 0.3498 | -0.00167 ± 0.000502
x1 = 0.3991 | -0.00143 ± 0.000502
x1 = 0.449 | -0.00122 ± 0.000502
x1 = 0.4993 | -0.00103 ± 0.000502
x1 = 0.5488 | -0.000837 ± 0.000502
x1 = 0.599 | -0.000645 ± 0.000502
x1 = 0.6492 | -0.000502 ± 0.000502
x1 = 0.6989 | -0.000382 ± 0.000502
x1 = 0.7495 | -0.000311 ± 0.000502
x1 = 0.7991 | -0.000239 ± 0.000502
x1 = 0.8497 | -0.000191 ± 0.000502
x1 = 0.9 | -0.000143 ± 0.000502
x1 = 0.9501 | -9.56e-05 ± 0.000502

CCCCCC [hexane] + CCCCO
Details | excess molar enthalpy [kcal/mol]
x2 = 0.2065 | 0.128 ± 0.00406
x2 = 0.2516 | 0.129 ± 0.00406
x2 = 0.405 | 0.133 ± 0.00406
x2 = 0.5028 | 0.12 ± 0.00382
x2 = 0.6056 | 0.105 ± 0.00335
x2 = 0.7505 | 0.0658 ± 0.00208
x2 = 0.8055 | 0.0521 ± 0.00165

CCCCCCCCN(CCCCCCCC)CCCCCCCC [trioctylamine] + CCCCCC
Details | excess molar enthalpy
x1 = 0.0312 | -0.00115 kcal/mol and -0.00117 kcal/mol and -0.0012 kcal/mol
x1 = 0.0625 | -0.0021 kcal/mol and -0.00217 kcal/mol and -0.00208 kcal/mol
x1 = 0.0938 | -0.00249 ± 0.000502 kcal/mol
x1 = 0.125 | -0.00294 kcal/mol and -0.00277 kcal/mol
x1 = 0.1875 | -0.00301 kcal/mol and -0.00308 kcal/mol
x1 = 0.25 | -0.00263 kcal/mol and -0.00253 kcal/mol
x1 = 0.3125 | -0.00213 ± 0.000502 kcal/mol
x1 = 0.375 | -0.00179 ± 0.000502 kcal/mol
x1 = 0.4375 | -0.00155 ± 0.000502 kcal/mol
x1 = 0.4999 | -0.00127 ± 0.000502 kcal/mol
x1 = 0.5625 | -0.00098 ± 0.000502 kcal/mol
x1 = 0.6249 | -0.000669 ± 0.000502 kcal/mol
x1 = 0.625 | -0.000693 ± 0.000502 kcal/mol
x1 = 0.6873 | -0.000526 ± 0.000502 kcal/mol
x1 = 0.75 | -0.000406 ± 0.000502 kcal/mol
x1 = 0.8124 | -0.000215 kcal/mol and -0.000167 kcal/mol
x1 = 0.8749 | -9.56e-05 ± 0.000502 kcal/mol
x1 = 0.875 | -2.39e-05 kcal/mol
x1 = 0.9374 | -4.78e-05 kcal/mol

CCCCN(CCCC)CCCC [tributylamine] + CCCCO
Details | excess molar enthalpy [kcal/mol]
x2 = 0.0505 | 0.00913 ± 0.000526
x2 = 0.1006 | 0.0104 ± 0.000526
x2 = 0.1507 | 0.00648 ± 0.000526
x2 = 0.2009 | 0.00115 ± 0.000502
x2 = 0.2511 | -0.00574 ± 0.000526
x2 = 0.3013 | -0.0113 ± 0.00055
x2 = 0.3519 | -0.0181 ± 0.000621
x2 = 0.4018 | -0.024 ± 0.000789
x2 = 0.4514 | -0.0301 ± 0.00098
x2 = 0.5014 | -0.0352 ± 0.00115
x2 = 0.5513 | -0.0402 ± 0.00129
x2 = 0.6014 | -0.0439 ± 0.00141
x2 = 0.6512 | -0.0471 ± 0.00151
x2 = 0.7011 | -0.0489 ± 0.00155
x2 = 0.7517 | -0.0498 ± 0.00158
x2 = 0.8013 | -0.0491 ± 0.00155
x2 = 0.8514 | -0.0465 ± 0.00148
x2 = 0.9004 | -0.0403 ± 0.00129
x2 = 0.9503 | -0.0274 ± 0.000908
x2 = 0.9698 | -0.0182 ± 0.000645
x2 = 0.9853 | -0.0055 ± 0.00055

CCCCCCCCN(CCCCCCCC)CCCCCCCC [trioctylamine] + CCCCO
Details | excess molar enthalpy
x2 = 0.0623 | 0.0383 ± 0.00124 kcal/mol
x2 = 0.1246 | 0.053 ± 0.00167 kcal/mol
x2 = 0.1877 | 0.0618 ± 0.00196 kcal/mol
x2 = 0.2503 | 0.0668 ± 0.0021 kcal/mol
x2 = 0.3122 | 0.0689 ± 0.00217 kcal/mol
x2 = 0.3747 | 0.0696 ± 0.0022 kcal/mol
x2 = 0.4373 | 0.0682 ± 0.00215 kcal/mol
x2 = 0.5 | 0.0651 ± 0.00206 kcal/mol
x2 = 0.5625 | 0.0615 ± 0.00194 kcal/mol
x2 = 0.6251 | 0.0558 ± 0.00177 kcal/mol
x2 = 0.6876 | 0.0467 ± 0.00148 kcal/mol
x2 = 0.7501 | 0.0353 ± 0.00115 kcal/mol
x2 = 0.8125 | 0.0241 ± 0.000789 kcal/mol
x2 = 0.875 | 0.0152 kcal/mol and 0.015 kcal/mol
x2 = 0.9375 | 0.00612 ± 0.000526 kcal/mol
